{"source": "patent US10227321B2", "about": "“Soothing pro-pheromonal composition for mammals” (Melchior Material And Life Science France, priority 2014, dated 2019)", "key": {"[1]": {"test": "Estimated amounts released into the atmosphere from the thermal diffuser", "type": "physicochemical", "settings": "for Daily amount released into the atmosphere: at 100° C.", "method": "Based on the preceding measurements, we can estimate that the amounts released over the 35-day period by molecules going into each composition are the following (in grams):\nBy considering that at 100° C., all of product 122:1 decomposes as was shown in Example 3, we can estimate the daily amounts of the various products released into the atmosphere according to the various formulae."}, "[2]": {"system": "dogs", "settings": "dog, in vivo; cited from earlier work"}, "[3]": {"test": "In vitro study of 2M2B release: climatic chamber, gas chromatography", "type": "physicochemical", "settings": "solution of Example 2b", "method": "Conditions A: 1) Solketal/KOH/RI/DMSO/50° C. 2) APTS/MeOH/H2O. Conditions B: 1) Solketal/KOH/RBr/Toluene/DS/2) APTS/MeOH/H2O. Conditions C: 1) CH2Cl2/Et3N/MsCl 2) Solketal/KOH/ROMs/Toluene/DS/Δ3) APTS/MeOH/H2O. GC Method Used: Equipment: GC, Hewlett Packard 5890 Series II Detector FID Column: HP5 30 m, 0.53 mm, 0.88 μm Pressure: 11 psi Injection volume: 1 μL Sample preparation: 4 mg/mL in AcOEt Injector temperature: 270° C. Detector temperature: 280° C. Oven:\nThe solution prepared in Example 2b is used in a climatic chamber at 100° C. and 30° C. (conditions corresponding either to the temperature of a thermal diffuser or to room temperature). Samples are taken at regular intervals and the disappearance of compound 122:1 and the appearance of C22:1 AKG is measured by gas chromatography. The results are presented in the following table (the percentages are expressed only taking into consideration integration relative to compound 118 and of C18:0 AKG): […]"}}}
{"smiles": "CC=C(C)C=O", "note": "[2-Methyl-2-butenal, 2-methyl-2-butenal]", "values": [{"measurement": "Daily amount released into the atmosphere", "setting": "[1]; 2% Formula (2e)", "value": 0.036, "unit": "mg"}, {"measurement": "Daily amount released into the atmosphere", "setting": "[1]; 5% Formula (2d)", "value": 36, "unit": "mg"}, {"measurement": "Daily amount released into the atmosphere", "setting": "[1]; 10% Formula (2c)", "value": 0.32, "unit": "mg"}, {"measurement": "effect on dogs", "setting": "[2]", "value": "has an effect on the heartbeat and the behavior of dogs"}]}
{"smiles": "CCCCC/C=C\\C/C=C\\CCCCCCCC(=O)O", "note": "[Linoleic acid]", "values": [{"measurement": "Daily amount released into the atmosphere", "setting": "[1]; 2% Formula (2e)", "value": 5.8, "unit": "mg"}, {"measurement": "Daily amount released into the atmosphere", "setting": "[1]; 5% Formula (2d)", "value": 5.1, "unit": "mg"}, {"measurement": "Daily amount released into the atmosphere", "setting": "[1]; 10% Formula (2c)", "value": 5.5, "unit": "mg"}, {"measurement": "amount released over the 35-day period", "setting": "[1]; from Formula 2c", "value": 0.195, "unit": "grams"}, {"measurement": "amount released over the 35-day period", "setting": "[1]; from Formula 2e", "value": 0.2, "unit": "grams"}, {"measurement": "amount released over the 35-day period", "setting": "[1]; from Formula 2d", "value": 0.188, "unit": "grams"}]}
{"smiles": "CCCCCCCCCCCCCCCCCCOCC(O)CO", "note": "(centres unmarked) [C18:0 AKG]", "values": [{"measurement": "% (GC integration relative to compound 118 and C18:0 AKG)", "setting": "[3]; T = 30° C., 1 d", "value": 0, "unit": "%"}, {"measurement": "% (GC integration relative to compound 118 and C18:0 AKG)", "setting": "[3]; T = 30° C., 2 d", "value": 0, "unit": "%"}, {"measurement": "% (GC integration relative to compound 118 and C18:0 AKG)", "setting": "[3]; T = 30° C., 7 d", "value": 0, "unit": "%"}, {"measurement": "% (GC integration relative to compound 118 and C18:0 AKG)", "setting": "[3]; T = 30° C., 14 d", "value": 0.5, "unit": "%"}, {"measurement": "% (GC integration relative to compound 118 and C18:0 AKG)", "setting": "[3]; T = 30° C., 21 d", "value": 1, "unit": "%"}, {"measurement": "% (GC integration relative to compound 118 and C18:0 AKG)", "setting": "[3]; T = 30° C., 28 d", "value": 1, "unit": "%"}, {"measurement": "% (GC integration relative to compound 118 and C18:0 AKG)", "setting": "[3]; T = 30° C., time 0", "value": 0, "unit": "%"}, {"measurement": "% (GC integration relative to compound 118 and C18:0 AKG)", "setting": "[3]; T = 100° C., 3 h", "value": 48, "unit": "%"}, {"measurement": "% (GC integration relative to compound 118 and C18:0 AKG)", "setting": "[3]; T = 100° C., 6 h", "value": 75, "unit": "%"}, {"measurement": "% (GC integration relative to compound 118 and C18:0 AKG)", "setting": "[3]; T = 100° C., 1 d", "value": 98, "unit": "%"}, {"measurement": "% (GC integration relative to compound 118 and C18:0 AKG)", "setting": "[3]; T = 100° C., 2 d", "value": 100, "unit": "%"}, {"measurement": "% (GC integration relative to compound 118 and C18:0 AKG)", "setting": "[3]; T = 100° C., 7 d", "value": 100, "unit": "%"}, {"measurement": "% (GC integration relative to compound 118 and C18:0 AKG)", "setting": "[3]; T = 100° C., 14 d", "value": 100, "unit": "%"}, {"measurement": "% (GC integration relative to compound 118 and C18:0 AKG)", "setting": "[3]; T = 100° C., 21 d", "value": 100, "unit": "%"}, {"measurement": "% (GC integration relative to compound 118 and C18:0 AKG)", "setting": "[3]; T = 100° C., 28 d", "value": 100, "unit": "%"}, {"measurement": "% (GC integration relative to compound 118 and C18:0 AKG)", "setting": "[3]; climatic chamber, T = 100° C., time 0", "value": 0, "unit": "%"}]}
{"smiles": "C/C=C(\\C)C1OCC(COCCCCCCCCCCCC/C=C\\CCCCCCCC)O1", "note": "(centres unmarked) [122:1]", "values": [{"measurement": "amount released over the 35-day period", "setting": "[1]; from Formula 2c", "value": 0.05, "unit": "grams"}, {"measurement": "amount released over the 35-day period", "setting": "[1]; from Formula 2e", "value": 0.0063, "unit": "grams"}, {"measurement": "amount released over the 35-day period", "setting": "[1]; from Formula 2d", "value": 0.0063, "unit": "grams"}]}
{"smiles": "C/C=C(\\C)C1OCC(COCCCCCCCCCCCC/C=C\\CCCCCCCC)O1", "note": "(centres unmarked) [C22:1 AKG]", "values": [{"measurement": "Daily amount released into the atmosphere", "setting": "[1]; 2% Formula (2e)", "value": 0.14, "unit": "mg"}, {"measurement": "Daily amount released into the atmosphere", "setting": "[1]; 5% Formula (2d)", "value": 0.14, "unit": "mg"}, {"measurement": "Daily amount released into the atmosphere", "setting": "[1]; 10% Formula (2c)", "value": 1.2, "unit": "mg"}]}
